Where two headings read alike, the source gives them in different places.
Tests used:
NOPr [1] = target: T1, NOPr (Homo sapiens, UniProt P41146); assay: BRET G-protein activation (GPA) assay, Gαi2, agonist and antagonist mode, Flp-In-NOPr-CHO cells; format: cell-based; conditions: for reduction in inhibitory potency from N-Boc congener to fluorescent ligand: 11g to 13g, 11h to 13h and 14h
Method: The functional activity of congeners 11a-h was assessed in a bioluminescence resonance energy transfer (BRET) assay measuring NOPr activation of the Gαi2 G protein through release of Gβγ subunits in Flp-In-NOPr-Chinese hamster ovary (CHO) cells, as summarized in Figure a.
Data represent the mean ± SEM of n = 4 experiments performed in duplicate. (a) Illustrative representation of the GPA assayligand-induced receptor activation causes G protein dissociation, releasing a Venus-tagged Gβγ (acceptor) to interact with a membrane-localized c-terminus of G protein-coupled receptor kinase 3 (masGRK3ct) fused to a renilla luciferase enzyme (RLuc8) (donor). […] After a 10 min incubation with the R-Luc substrate coelenterazine and NOPr ligands, luminescence was measured to quantify GPA as a BRET ratio between acceptor λem 535 nm/donor λem 475 nm.
Flp-In CHO cells stably expressing SNAP-NOPr were transiently transfected with Gαi2 (2 μg), Gβ1-Venus (156–259)­(1 μg), Gγ2-Venus­(1–155)­(1 μg), and masGRK3ct-RLuc8 (1 μg) using polyethylenimine (PEI) in a 1:6 DNA/PEI ratio. The mixture was suspended in sterile NaCl, vortexed, and then incubated (10 min, RT), before being added to the cells in fresh antibiotic media DMEM (7 mL) supplemented with 10% FBS (v/v) and penicillin (50 units·mL^–1)- streptomycin (50 μg.mL^–1).
Cells were then incubated with coelenterazine H (NanoLight Technology) (10 μL/well, 50 μM, 5 min, RT) before ligands were added to the 96-well plate with final ligand concentrations ranging from (10 μM-0.01 nM). […] Cells were incubated in the plate reader, and luminescence was read using dual emission detection at 475 nm (Rluc8 Donor) and 535 nm emission (BRET signal) at 10 and 30 min. Plates were read on a PHERAstar (BMG Lab Tech), and data were exported through MARS and analyzed using Prism (GraphPad, Version 10).

SNAP-NOPr = target: T2, SNAP-NOPr (Homo sapiens, UniProt P41146); assay: Confocal imaging of fluorescent ligand binding, live FlpIn CHO cells stably expressing SNAP-NOPr; format: cell-based; conditions: for fluorescent ligand binding (confocal images): 1 μM, 30 min at 37 °C, live cells
T2 construct: expressed in transfected cells
T2 sequence (P41146 whole entry): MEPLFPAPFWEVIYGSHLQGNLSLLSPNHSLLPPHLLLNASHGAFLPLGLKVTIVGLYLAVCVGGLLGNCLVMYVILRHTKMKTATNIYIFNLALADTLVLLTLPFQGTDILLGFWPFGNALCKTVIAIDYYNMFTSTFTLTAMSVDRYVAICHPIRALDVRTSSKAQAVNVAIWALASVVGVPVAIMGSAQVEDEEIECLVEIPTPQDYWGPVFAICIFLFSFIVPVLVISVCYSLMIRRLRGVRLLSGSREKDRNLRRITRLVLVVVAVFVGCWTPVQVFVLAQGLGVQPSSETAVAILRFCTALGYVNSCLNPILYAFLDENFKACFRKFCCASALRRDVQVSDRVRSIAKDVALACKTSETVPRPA
Method: To first assess whether the library of fluorescent ligands (13a-h and 14h) can specifically label the NOPr, single time point confocal images of live FlpIn CHO cells stably expressing SNAP-NOPr were captured. Cells were incubated with fluorescent ligands 13a-h and 14h (1 μM) to assess the fluorescent ligand binding.
3 Single time point confocal images of live FlpIn CHO cells stably expressing SNAP-NOPr. Cells were labeled with SNAP-AF488 (cyan) to visualize SNAP-NOPr expression (a–d) and incubated for 30 min at 37 °C with fluorescent ligands 13e–h (1 μM) (magenta) to visualize fluorescent ligand binding (e-h).
For all experiments, live cell single time point confocal images were captured using a Zeiss Cell Discoverer 7 LSM 900 high-content automated confocal microscope. Two images per well were captured using a 10× objective and the Cy5 channel (650 λex, 673 λem), the AF488 (495λex, 520 λem) channel, and the CFP (433λex, 475 λem) channel. All cells were imaged in an imaging buffer containing (2 mM sodium pyruvate, 145 mM NaCl, 10 mM D-glucose, 5 mM KCl, 1 mM MgSO4·7H2O, 10 mM HEPES, 1.3 mM CaCl2 dihydrate, and 1.5 mM NaHCO3).
Stably expressing SNAP-NOPr FlpIn-CHO cells suspended in DMEM (D6421) (100 μL) were seeded (10,000 cells/well) into 96-well poly-D-lysine (PDL)-coated Greiner black polyester plates. Cells were incubated for 48 h at 37 °C and 5% CO2 prior to imaging.
Before measurement, the media were removed, and cells were washed with 90 μL of imaging buffer. Cells were then incubated with SNAP-AF488 (New England Biolabs) (0.5 μg·mL^–1) in imaging buffer for 30 min at 37 °C. After incubation, the SNAP-AF488 solution was aspirated and cells were rinsed twice with imaging buffer (90 μL). […] Cells were incubated for 30 min at 37 °C and 5% CO2 before the images were captured.

NOPr [2] = target: T1, NOPr; assay: TR-FRET equilibrium saturation binding, Lumi4Tb-SNAP-NOPr CHO membranes
Method: The levels of specific binding (total – nonspecific) were calculated and used to determine the dissociation constant (K D) as a measure of affinity.
For 13g-h, the homogeneous TR-FRET (HTRF) ratio [(acceptor λem (665 nM)/donor λem (620 nM) × 10000)] is plotted against ligand concentration (nM) for the total binding (solid circle) and nonspecific binding (NSB) (hollow circle). […] For end point saturation binding assays, data represent the mean ± SEM of n = 3 experiments performed in duplicate, and for kinetic binding studies, all data represent the mean of n = 3 experiments.
All ligands were prepared in TR-FRET buffer, consisting of Hanks’ Balanced Salt Solution (Sigma-Aldrich H6648) (KCl 5 mM, KH2PO4 0.4 mM, NaHCO3 4 mM, NaCl 137 mM, Na2HPO4 0.3 mM), Pluronic-F127 (0.02% w/v), DMSO (1% v/v), and glucose (1 mg.mL^–1), adjusted to pH 7.4. Membrane aliquots were thawed on ice prior to use, and membrane suspensions [membrane (0.05 μg.μL^–1), Gpp­(NH)p (100 μM), and saponin (50 μg.mL^–1)] were prepared in TR-FRET buffer. To ensure homogeneity, the membrane suspension was passed through a 27-gauge needle before use. Measurements were made in low-binding 384-well optiplates (PerkinElmer) on a PHERAstar (BMG Labtech) plate reader using the HTRF module [337 nm excitation with dual emission detection at 620 nm (terbium cryptate donor) and 665 nm emission (fluorescent ligand acceptor)] at a focal height of 11.4 mm. Integration was started 60 μs post irradiation (4 flashes/well) for 400 μs, all saturation and competition binding experiments were carried out in duplicate wells, and data were reported as the mean HTRF ratio ((acceptoremission/donoremission)×10,000) from 3 repeat measurements ±SEM.
Membrane solution (20 μL) was added, and the measurement was taken after a 2 h incubation at 37 °C. All data were converted to specific binding (total – nonspecific) and fitted using eq to determine K D. 2 HTRFratio×10,000=Bmax[FL]/(KD+[FL])

[3] = IC50, antagonist mode, inhibition of EC80 concentration of N/OFQ, n = 4 in duplicate
[4] = NOP pIC50 ± SEM, supplementary csv, GPA assay antagonist mode
[5] = pIC50 ± SEM, antagonist mode, inhibition of EC80 concentration of N/OFQ, n = 4 in duplicate
[6] = NOP IC50 (nM), supplementary csv, GPA assay antagonist mode
[7] = antagonist mode, inhibition of EC80 concentration of N/OFQ, n = 4 in duplicate, read-out: IC50 (converted)
[8] = antagonist mode, inhibition of EC80 concentration of N/OFQ, n = 4 in duplicate, read-out: pIC50 ± SEM (converted)
[9] = supplementary csv, GPA assay antagonist mode, read-out: NOP pIC50 ± SEM (converted)
[10] = supplementary csv, GPA assay antagonist mode, read-out: NOP IC50 (converted)

T1 sequence (P41146 whole entry): as above

SMILES	IC50 (NOPr [1]; [3])	IC50 (NOPr [1]; [4])	IC50 (NOPr [1]; [5])	IC50 (NOPr [1]; [7])	IC50 (NOPr [1]; [8])	IC50 (NOPr [1]; [9])	IC50 (NOPr [1]; [10])	also measured
C[C@H](NC(=O)OC(C)(C)C)C(=O)N1CCC[C@@H]1C(=O)NCCCN1CCC2(CC1)OCc1ccccc12 [11a, tert-Butyl ((S)-1-((R)-2-((3-(3H-Spiro[isobenzofuran-1,4′-piperidin]-1′-yl)propyl)carbamoyl)pyrrolidin-1-yl)-1-oxopropan-2-yl)carbamate]	11700 nM	11700 nM	12600 nM	–	–	–	–	–
CC(C)(C)OC(=O)NCCC(=O)N1CCC[C@@H]1C(=O)NCCCN1CCC2(CC1)OCc1ccccc12 [11b, tert-Butyl (R)-(3-(2-((3-(3H-Spiro[isobenzofuran-1,4′-piperidin]-1′-yl)propyl)carbamoyl)pyrrolidin-1-yl)-3-oxopropyl)carbamate]	7800 nM	7760 nM	7940 nM	–	–	–	–	IC50 (NOPr [1]; [6]): 7760 nM
CC(C)(C)OC(=O)NCCCC(=O)N1CCC[C@@H]1C(=O)NCCCN1CCC2(CC1)OCc1ccccc12 [11c, tert-Butyl (R)-(4-(2-((3-(3H-Spiro[isobenzofuran-1,4′-piperidin]-1′-yl)propyl)carbamoyl)pyrrolidin-1-yl)-4-oxobutyl)carbamate]	–	–	–	4900 nM	5010 nM	4900 nM	–	–
CC(C)(C)OC(=O)NCCCCC(=O)N1CCC[C@@H]1C(=O)NCCCN1CCC2(CC1)OCc1ccccc12 [11d, tert-Butyl (R)-(5-(2-((3-(3H-Spiro[isobenzofuran-1,4′-piperidin]-1′-yl)propyl)carbamoyl)pyrrolidin-1-yl)-5-oxopentyl)carbamate]	–	–	–	1200 nM	1260 nM	1230 nM	1230 nM	–
CC(C)(C)OC(=O)NCCOc1cccc(C(=O)N2CCC[C@@H]2C(=O)NCCCN2CCC3(CC2)OCc2ccccc23)c1 [11e, tert-Butyl (R)-(2-(3-(2-((3-(3H-Spiro[isobenzofuran-1,4′-piperidin]-1′-yl)propyl)carbamoyl)pyrrolidine-1-carbonyl)phenoxy)ethyl)carbamate]	–	–	–	370 nM	398 nM	372 nM	372 nM	–
CC(C)(C)OC(=O)NCCOc1ccc(C(=O)N2CCC[C@@H]2C(=O)NCCCN2CCC3(CC2)OCc2ccccc23)cc1 [11f, tert-Butyl (R)-(2-(4-(2-((3-(3H-Spiro[isobenzofuran-1,4′-piperidin]-1′-yl)propyl)carbamoyl)pyrrolidine-1-carbonyl)phenoxy)ethyl)carbamate]	–	–	–	270 nM	251 nM	269 nM	269 nM	–
CC(C)(C)OC(=O)NCCOc1cccc(CN2CCC[C@@H]2C(=O)NCCCN2CCC3(CC2)OCc2ccccc23)c1 [11g, tert-Butyl (R)-(2-(3-((2-((3-(3H-Spiro[isobenzofuran-1,4′-piperidin]-1′-yl)propyl)carbamoyl)pyrrolidin-1-yl)methyl)phenoxy)ethyl)carbamate]	20 nM	19.5 nM	20 nM	–	–	–	–	IC50 (NOPr [1]; [6]): 19.5 nM
CC(C)(C)OC(=O)NCCOc1ccc(CN2CCC[C@@H]2C(=O)NCCCN2CCC3(CC2)OCc2ccccc23)cc1 [11h, tert-Butyl (R)-(2-(4-((2-((3-(3H-Spiro[isobenzofuran-1,4′-piperidin]-1′-yl)propyl)carbamoyl)pyrrolidin-1-yl)methyl)phenoxy)ethyl)carbamate]	5.5 nM	5.5 nM	5.01 nM	–	–	–	–	–
CN1/C(=C/C=C/C=C/C2=[N+](CCCCCC(=O)NCCOc3cccc(C(=O)N4CCC[C@@H]4C(=O)NCCCN4CCC5(CC4)OCc4ccccc45)c3)c3ccc(S(=O)(=O)[O-])cc3C2(C)C)C(C)(C)c2cc(S(=O)(=O)[O-])ccc21.[K+] [13e, Potassium 1-(6-((2-(3-((R)-2-((3-(3H-Spiro[isobenzofuran-1,4′-piperidin]-1′-yl)propyl)carbamoyl)pyrrolidine-1-carbonyl)phenoxy)ethyl)amino)-6-oxohexyl)-3,3-dimethyl-2-((1E,3E)-5-((E)-1,3,3-trimethyl-5-sulfonatoindolin-2-ylidene)penta-1,3-dien-1-yl)-3H-indol-1-ium-5-sulfonate]	–	–	–	–	–	–	–	fluorescent ligand binding (confocal images) (SNAP-NOPr): Binding was observed
CN1/C(=C/C=C/C=C/C2=[N+](CCCCCC(=O)NCCOc3ccc(C(=O)N4CCC[C@@H]4C(=O)NCCCN4CCC5(CC4)OCc4ccccc45)cc3)c3ccc(S(=O)(=O)[O-])cc3C2(C)C)C(C)(C)c2cc(S(=O)(=O)[O-])ccc21.[K+] [13f, Potassium 1-(6-((2-(4-((R)-2-((3-(3H-Spiro[isobenzofuran-1,4′-piperidin]-1′-yl)propyl)carbamoyl)pyrrolidine-1-carbonyl)phenoxy)ethyl)amino)-6-oxohexyl)-3,3-dimethyl-2-((1E,3E)-5-((E)-1,3,3-trimethyl-5-sulfonatoindolin-2-ylidene)penta-1,3-dien-1-yl)-3H-indol-1-ium-5-sulfonate]	–	–	–	–	–	–	–	fluorescent ligand binding (confocal images) (SNAP-NOPr): Binding was observed
CN1/C(=C/C=C/C=C/C2=[N+](CCCCCC(=O)NCCOc3ccc(CN4CCC[C@@H]4C(=O)NCCCN4CCC5(CC4)OCc4ccccc45)cc3)c3ccc(S(=O)(=O)[O-])cc3C2(C)C)C(C)(C)c2cc(S(=O)(=O)[O-])ccc21.[K+] [13h, Potassium 1-(6-((2-(4-(((R)-2-((3-(3H-Spiro[isobenzofuran-1,4′-piperidin]-1′-yl)propyl)carbamoyl)pyrrolidin-1-yl)methyl)phenoxy)ethyl)amino)-6-oxohexyl)-3,3-dimethyl-2-((1E,3E)-5-((E)-1,3,3-trimethyl-5-sulfonatoindolin-2-ylidene)penta-1,3-dien-1-yl)-3H-indol-1-ium-5-sulfonate]	–	–	–	–	–	–	–	reduction in inhibitory potency from N-Boc congener to fluorescent ligand (NOPr [1]): ≥ 20 fold; fluorescent ligand binding (confocal images) (SNAP-NOPr): more pronounced binding; binding behaviour at the highest concentration tested (NOPr [2]; 400 nM): saturable binding with minimal nonspecific binding; higher affinity of 13h than 13g (NOPr [2]; saturation KD): 5 fold
O=C(CCCCCNC(=O)COc1ccc(/C=C/C2=[N+]3C(=Cc4ccc(-c5cccs5)n4[B-]3(F)F)C=C2)cc1)NCCOc1ccc(CN2CCC[C@@H]2C(=O)NCCCN2CCC3(CC2)OCc2ccccc23)cc1 [14h, (R,E)-N-(3-(3H-Spiro[isobenzofuran-1,4′-piperidin]-1′-yl)propyl)-1-(4-(2-(6-(2-(4-(2-(5,5-Difluoro-7-(thiophen-2-yl)-5H-4λ^4,5λ^4-dipyrrolo[1,2-c:2′,1′-f][1,3,2]diazaborinin-3-yl)vinyl)phenoxy)acetamido)hexanamido)ethoxy)benzyl)pyrrolidine-2-carboxamide]	–	–	–	130 nM	126 nM	–	126 nM	reduction in inhibitory potency from N-Boc congener to fluorescent ligand (NOPr [1]): ≥ 20 fold; functional agonism at the NOPr (NOPr [1]; agonist mode, absence of N/OFQ): no functional agonism; specificity of labeling: displacement by SB-612111 / nonspecific labeling (SNAP-NOPr; 1 μM ligand, SB-612111 1 μM): significant nonspecific labeling
